According to patent publication US20040259766A1, “Use of glutamate, glutamate derivatives or metabolites, glutamate analogues or mixtures thereof for the manufacture of a composition for the treatment of osteoporosis” (priority 2004, published 2004):
Where two headings read alike, the source gives them in different places. Marks after values point to notes of the source that are not given here. Residues, ends and D or L forms follow the SMILES beside them.

Key:
[1] = Gain of bodyweight of piglets during postnatal life; format: in vivo, pig
Description: (§1) All piglets suckled sow milk before weaning. After weaning at the age of 28 days piglets were fed ad libitum with a standard mixture Premix prestarter (PP) (Food plant-Motycz, Poland) and free access to water was allowed. Piglets were allotted to three experimental trials:
(§2) 2—Second group, receiving 0.4 g/kg/b.w. of L-alanyl-L-glutamine (ala-gin), (2 ml solution/kg b.w.)
(§3) At the age of 35 days, piglets were sacrificed, eviscerated and bones were sampled.

humerus and femur [2] = assay: Three point bending test (Instron 4302) of humerus and femur of piglets given Ala-Gln or AKG orally; format: in vivo, pig; conditions: piglets at 35 days of postnatal life; 0.4 g/kg b.w. oral once a day; mean ± SEM
Description: as §1, §2, §3
(§4) Using Instron 4302 apparatus and applying three point bending test as presented in FIG. 1, the following properties of the bones were determined from curves showing the relation between load and deflection: […]

right femur = assay: Bone mineral density (DEXA) of the right femur of piglets; format: in vivo, pig; conditions: right femur proximal and distal metaphysis, 21 and 35 days (FIG. 17, 18)
Description: (§7) Bone mineral density (BMD) was analysed by DEXA (Dual Energy X-ray Absorptiometry) using LUNAR apparatus.

femur = assay: Femur bone mineral density in intact, shame operated and ovariectomized rats given AKG in drinking water; format: in vivo, Wistar rat; conditions: in all three groups (INT, SHO, OVX); 60 days of drinking water with AKG; p<0.01 in all groups
Description: 60 female Wistar rats at the age of 2 months and with an initial bodyweight of 200 g are used.
The rats are divided into three groups (n=20), where Group 1 is shame operated, Group 2 is ovariectomized and Group 3 is intact, i.e. not operated at all.
20 of the rats are shame-operated (SHO), where the ovaries are exteriorised and replaced intact.
The second group of ovariectomized rats (OVX) are submitted to ovariectomy from a dorsal approach.
Six months after ovariectomy, the animals from group 1 and 2, are divided into two additional sub-groups; one placebo and one experimental group.
After 60 days with placebo and experimental drinking water the rats are anaesthetised in CO2 and femur isolated for further analysis of bone mineral density.

ribs [3] = assay: Three point bending test (Instron 4302) of ribs of piglets given Ala-Gln or AKG orally; format: in vivo, pig
Description: as §1, §2, §3, §4

humerus and femur [4] = assay: Architectural and geometric properties of humerus and femur of piglets; format: in vivo, pig; conditions: piglets at 35 days of postnatal life; 0.4 g/kg b.w. oral once a day; mean ± SEM
Description: as §1, §2, §3
(§5) Architectural and geometric properties of bone were estimated based on measurements of horizontal and vertical cross section as well as interior and exterior diameter of the bone.
(§6) Mean relative wall thickness (MRWT) expresses the ratio of wall to lumen measures and serves as an indicator in the process of architectural adaptation of bone to physiological stress during the growth of the body. When the lumen increases with unchanged wall thickness the MRWT decreases but bone resistance to strain increases.

ribs [5] = assay: Architectural and geometric properties of ribs of piglets; format: in vivo, pig; conditions: piglets at 35 days of postnatal life; 0.4 g/kg b.w. oral once a day; mean ± SEM
Description: as §1, §2, §3, §5, §6

ulna bone = conditions: group A, 0.8 g/kg body weight oral
Description: During general anesthetic surgery, the ulnar is broken and optionally denervated. On the first day after operation saline, AKG or Ala-Gln is administered orally at a dose of 0.8 g/kg body weight in 2 ml.
After the experimental period, the turkeys will be weighed and sacrified in order to measure bone mineral density (BMD).
as §7

[6] = piglets at 35 days of postnatal life, 0.4 g/kg b.w. oral once a day, mean ± SEM

With `O=C(O)CCC(=O)C(=O)O` [AKG, alpha-ketoglutaric acid] the “Bodyweight of the piglets versus control group and Ala-Gln group” value ([1]; p>0.01 in comparison to Ala-Gln as printed) was “more dramatic”, the “Bone maximum elastic strength (Wy) femur” value (humerus and femur [2]) was 1042.9 ± 73.66 N and the “Bone maximum elastic strength (Wy) humerus” value (humerus and femur [2]) was 726.0 ± 37.73 N. The “Bone ultimate strength (Wf) femur” value (humerus and femur [2]) was 1123.0 ± 75.09 N, the “Bone ultimate strength (Wf) humerus” value (humerus and femur [2]) was 857.6 ± 45.42 N and the “Bone mineralization versus piglets receiving placebo” value (right femur) was “higher”. For the same compound, the “BMD, difference between AKG treated rats and placebo treated rats” value (femur) was “about 10%”, the “Yielding stress of the 5th rib” value (ribs [3]; 35-days-old piglets, versus control, FIG. 11) was “significant increase” and the “Bone maximum elastic strength (Wy) (ribs 4-9)” value (ribs [3]; [6]) was 522.5 ± 17.97 N. The “Moment of ultimate strength ribs (4-9)” value (ribs [3]; [6]) was 737.445 ± 23.85 N, the “Ultimate strength (Wf) (ribs 4-9)” value (ribs [3]; [6]) was 585.1 ± 18.5 N and the “Cross-sectional area (A) femur” value (humerus and femur [4]) was 64.7 ± 3.82* mm^2. For the same compound, the “Cross-sectional area (A) humerus” value (humerus and femur [4]) was 52.7 ± 4.1* mm^2, the “Second moment of inertia (Ix) femur” value (humerus and femur [4]) was 696.5 ± 48.7* mm^4 and the “Second moment of inertia (Ix) humerus” value (humerus and femur [4]) was 459.4 ± 59.42* mm^4. For the same compound, the “Cross sectional area (A) (ribs 4-9)” value (ribs [5]) was 10.52 ± 0.35* mm^2, the “MRWT (ribs 4-9)” value (ribs [5]) was 0.60 ± 0.026 and the “Second moment of inertia (ribs 4-9)” value (ribs [5]) was 15.42 ± 0.93* mm^4. The “BMD of the ulna bone, difference compared to saline treated turkeys” value (ulna bone; left wing control (intact), p<0.01) was 25% and the “BMD of the ulna bone, difference compared to saline treated turkeys” value (ulna bone; right wing experimental (neurectomized, fracture of the ulnae), p<0.055) was “about 11%”.
In the case of `C[C@H](N)C(=O)N[C@@H](CCC(N)=O)C(=O)O` [Ala-Gln, L-alanyl-L-glutamine, reference compound] (H-Ala-Gln-OH), the “Bodyweight difference (control group less than Ala-Gln treated group)” value ([1]; day 14, 0.4 g/kg b.w. oral) is reported as “about 690 g”, the “Bodyweight difference (control group less than Ala-Gln treated group)” value ([1]; day three, 0.4 g/kg b.w. oral) is reported as “about 96 g” and the “Bone maximum elastic strength (Wy) femur” value (humerus and femur [2]) is reported as 1016.8 ± 46.68 N. For the same compound, the “Bone maximum elastic strength (Wy) humerus” value (humerus and femur [2]) was 638.7 ± 9.91 N, the “Bone ultimate strength (Wf) humerus” value (humerus and femur [2]) was 743.0 ± 15.71∇ N and the “Mean relative wall thickness (MRWT) femur” value (humerus and femur [4]) was 0.88 ± 0.12. The “Mean relative wall thickness (MRWT) humerus” value (humerus and femur [4]) was 0.64 ± 0.07, the “Second moment of inertia (Ix) humerus” value (humerus and femur [4]) was 368.4 ± 24.31* mm^4 and the “MRWT (ribs 4-9)” value (ribs [5]) was 0.70 ± 0.038.
